Data on three compounds can be found in US5124150A.

One data set has as its system HIV antigen. The data set can be described thus: expression of HIV antigen in infected MT-4 cells by immunofluorescence. The format is cell-based. As to conditions: HIV-infected MT-4 cells; concentration higher than 50 μg/ml. How it is done:
Expression of HIV antigen was examined by immunofluorescence. When MT-4 cells were infected with HIV, viral antigen positive cells increased with incubation time and all the cells became positive on day 6 after infection.

Data set [1] has as its system reverse transcriptase (RTase) derived from avian myeloblastosis virus (AMV). It is filed as biochemical. As to conditions: concentrations higher than 3 μg/ml; 1 unit of AMV RTase.
The subject of the next data set is CEM-SS cells. Put plainly: cellular toxicity in CEM-SS cells, XTT assay. The format is cell-based. As to conditions: human, 144 h. An excerpt:
CEM-SS cells were obtained from Owen Weislow at the National Cancer Institute.

The next data set can be described thus: solubility in solvents. It is filed as physicochemical.
The next data set deals with uninfected CEM cells. As to conditions: human, 7200 min.
The subject of data set [2] is human immunodeficiency virus (HIV) LAV/BRU. As to conditions: CEM-F cells; reduces viral replication by 50%.
Description: AZT was included as a reference compound. The methodology used in this assay is described below:
The cells and the virus were grown in LAV/CEM medium. The medium consists of RPMI 1640, supplemented with 1% L-glutamine, 100 U/ml of Penicillin, 100 μg/ml Streptomycin, 2 μg/ml Polybrene and 10% heat-inactivated fetal bovine serum (HyClone Labs). […] The LAV/BRU of human immunodeficiency virus (HIV) was obtained from Dr. L. Montagnier, Institute Pasteur, Paris, France. The virus was adapted to CEM cells, and infectious virus stocks were stored as cell-free supernatant fluids in 1 ml aliquots in liquid nitrogen. The titer of the stock was determined by an end point titration method using CEM cells in 96-well microtiter plates. The titration was done with ten replicates for each point, and the 50% tissue culture infective dose (TCID50) was calculated using the method of Reed and Muench (Amer. J. Hygiene, 27/3 (1938) 493-497).
25 The CEM cells (1.5×10^5 cells/ml) were placed in 96-well plates and incubated with virus for 45 minutes. After 45 minutes each compound was added in quadruplicate. […] The OD readings (absorbance at 450/630 nm) fall into three categories: Experimentals=values from wells containing cells, viral inoculum and drug; Controls=values from wells with cells and virus (100%); and Background=values from wells with viral inoculum alone. […]

Description for uninfected CEM cells: The cells and the virus were grown in LAV/CEM medium. The medium consists of RPMI 1640, supplemented with 1% L-glutamine, 100 U/ml of Penicillin, 100 μg/ml Streptomycin, 2 μg/ml Polybrene and 10% heat-inactivated fetal bovine serum (HyClone Labs).
The toxicities of the drugs were tested against uninfected CEM cells. The CEM cells were plated as described above, and culture for five days in the presence or absence of drugs. On day five 1 μCi/well of ^3 H-thymidine was added, and cells were harvested 3 hours later. The results are expressed as toxic dose 50 (TD50) and represent the amount of drug necessary to reduce the cell proliferation by 50% as measured through thymidine incorporation.

As for `C/C1=C\C=C\C2(C)C=C(CO[C@H]3O[C@H](CO)[C@H](O)[C@H](O)[C@H]3O)C(C)CC23OC(O)C(C3=O)C(O)/C=C/C2(C)C=C(C=O)C(C)CC23OC(O)C(C3=O)C(O)/C(C)=C/C=C/C2C=C(CO[C@H]3O[C@H](CO)[C@H](O)[C@H](O)[C@H]3O)C(C)CC23OC(O)C(C3=O)C(O)/C=C/C2(C)C=C(C=O)C(C)CC23OC(O)C(C3=O)C1O` (some centres unmarked), the “HIV antigen positive cells” value in the data set on HIV antigen was “less than 1%”. In data set [1], the “inhibition of AMV RTase activity” value is “more than 95%”. The “TD50, XTT assay” value with CEM-SS cells turned out to be 300 µg/mL. The “solubility in dimethylformamide and dimethyl sulfoxide” value in the data set “solubility in solvents” was “soluble”. In addition, the “TD50, thymidine incorporation” value in the data set with uninfected CEM cells was > 100 µg. Also, in data set [2], the “ED50, p24gag antigen capture assay” value amounted to 3.2 µg.

In the case of `Cc1cn([C@H]2C[C@H](N=[N+]=[N-])[C@@H](CO)O2)c(=O)[nH]c1=O` [AZT, reference compound], the “TD50, thymidine incorporation” value in the data set on uninfected CEM cells amounted to 4.2 µg.

Regarding `C/C1=C\C=C\C2C=C(CO[C@H]3O[C@H](CO)[C@H](O)[C@H](O)[C@H]3O)C(C)CC23OC(O)C(C3=O)C(O)/C=C/C2(C)C=C(CO)C(C)CC23OC(O)C(C3=O)C(O)/C(C)=C/C=C/C2(C)C=C(CO[C@H]3O[C@H](CO)[C@H](O)[C@H](O)[C@H]3O)C(C)CC23OC(O)C(C3=O)C(O)/C=C/C2(C)C=C(C=O)C(C)CC23OC(O)C(C3=O)C1O` (some centres unmarked), the “TD50, XTT assay” value in the data set on CEM-SS cells is 200 µg/mL. Also, the “solubility in dimethylformamide and dimethyl sulfoxide” value in “solubility in solvents” is given as “soluble”. In the data set on uninfected CEM cells, the “TD50, thymidine incorporation” value is > 100 µg. Besides, in data set [2], the “ED50, p24gag antigen capture assay” value was determined as 2.5 µg.
